Each structure is given as a SMILES string.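 Grown in 96-well plates, cells were treated for 48 hours with each compound at five concentrations. Insufficient inhibition: endpoint recorded as highest concentration tested. TGI marks complete inhibition of growth.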

Among the test systems are DLD-1 colon; DMS 114 small cell lung; DMS 273 small cell lung; HOP-18 NSCLC; KM20L2 colon; LXFL 529 NSCLC; M19-MEL melanoma; SNB-78 CNS; XF 498 CNS; RXF-631 renal.
Test in all cases: DTP human tumour cell line panel, 48 h

For `COC1=CC(=O)C2C(C1=O)C(c1ccc(Cl)cc1)[C@@H]2C` (some centres not stated), the TGI in the assay with DLD-1 colon is 70.5 µM; with DMS 114 small cell lung, 47.7 µM; in the assay with DMS 273 small cell lung it was greater than 100 µM; in the assay on HOP-18 NSCLC, 25.2 µM; in the assay on KM20L2 colon, greater than 100 µM; with LXFL 529 NSCLC it was 32.7 µM. In addition, the values for the total growth inhibition concentration (TGI) in the assay on M19-MEL melanoma, with SNB-78 CNS and with XF 498 CNS were 97.9 µM, greater than 100 µM and 37.5 µM, respectively.

For the compound `COC(=O)C(Cc1nc2ccccc2[nH]c1=O)C(=O)C(=O)Nc1ccc(F)cc1` (configuration not stated), the concentration for total growth inhibition (TGI) in the assay on DLD-1 colon was greater than 100 µM; in the assay with DMS 114 small cell lung, 80.7 µM; with DMS 273 small cell lung, greater than 100 µM; in the assay on HOP-18 NSCLC, greater than 100 µM; in the assay with KM20L2 colon it was greater than 100 µM; in the assay on LXFL 529 NSCLC, 30 µM. Besides, the TGI in the assay with M19-MEL melanoma, in the assay on RXF-631 renal and in the assay on XF 498 CNS was greater than 100 µM in each case.

As for `C=C(C)CC(C)(c1cc2ccccc2n1C)N1CCOCC1` (configuration not stated), the TGI in the assay with DLD-1 colon, in the assay on DMS 273 small cell lung, with HOP-18 NSCLC, in the assay with KM20L2 colon, in the assay with LXFL 529 NSCLC and in the assay with M19-MEL melanoma was greater than 100 µM each time. The TGI in the assay on RXF-631 renal and in the assay with XF 498 CNS was greater than 100 µM in each case.

For the compound `CCOC(=O)c1c2ccc(/C=C/c3ccccc3)ccc-2c(C(=O)OCC)c1N`, the concentration for total growth inhibition (TGI) with DLD-1 colon, in the assay on DMS 114 small cell lung, in the assay with DMS 273 small cell lung, with HOP-18 NSCLC, in the assay on KM20L2 colon and in the assay on LXFL 529 NSCLC was greater than 100 µM each time. The TGI in the assay with M19-MEL melanoma and with RXF-631 renal was greater than 100 µM each time.

As for `CSc1nc2nc(C(O)C(O)C(O)CO)cnc2c(=O)[nH]1` (configuration not stated), the concentration for total growth inhibition (TGI) in the assay with DLD-1 colon, in the assay on DMS 114 small cell lung, in the assay on DMS 273 small cell lung, in the assay with KM20L2 colon, in the assay with LXFL 529 NSCLC and in the assay on M19-MEL melanoma was greater than 100 µM in each case. Also, the TGI in the assay with SNB-78 CNS and in the assay with XF 498 CNS was greater than 100 µM throughout.

Take `CC(=O)NC(CCCNC(=O)OCc1ccccc1)C(=O)O` (configuration not stated): the TGI in the assay with DLD-1 colon, in the assay with DMS 114 small cell lung, in the assay on DMS 273 small cell lung, with KM20L2 colon, in the assay with LXFL 529 NSCLC and in the assay with M19-MEL melanoma was greater than 100 µM throughout. Besides, the TGI with RXF-631 renal, in the assay with SNB-78 CNS and in the assay on XF 498 CNS was greater than 100 µM throughout.

As for `CCOC(=O)C1=C(c2ccccc2)N(C(C)=O)Cc2ccccc21`, the TGI is greater than 100 µM with DLD-1 colon; 25.9 µM in the assay with DMS 114 small cell lung; 29.8 µM in the assay with DMS 273 small cell lung; 99.4 µM with HOP-18 NSCLC; 53.7 µM with KM20L2 colon; greater than 100 µM in the assay with LXFL 529 NSCLC. The figures for the total growth inhibition concentration (TGI) with M19-MEL melanoma and with XF 498 CNS were 39.3 µM and 25 µM, respectively.

For the compound `CCSc1nnc(-c2ccccc2)nc1Cc1ccc(OC)cc1`, the TGI in the assay on DLD-1 colon, with DMS 273 small cell lung, with HOP-18 NSCLC, with KM20L2 colon, in the assay with LXFL 529 NSCLC and in the assay on M19-MEL melanoma was greater than 100 µM in each case. Moreover, the TGI with SNB-78 CNS and in the assay with XF 498 CNS was greater than 100 µM each time.

On to `N#CC1CCCCC1NC1(C#N)CCCCC1` (configuration not stated), for which the TGI with DLD-1 colon, in the assay with DMS 114 small cell lung, in the assay with DMS 273 small cell lung, in the assay with KM20L2 colon, in the assay with LXFL 529 NSCLC and in the assay with SNB-78 CNS was greater than 100 µM throughout. This compound also displayed a total growth inhibition concentration (TGI) with XF 498 CNS greater than 100 µM.

Consider `C[N+]1(C)C[C@@H](O)C[C@@H]1C(=O)[O-]`, for which the concentration for total growth inhibition (TGI) in the assay with DLD-1 colon, in the assay on DMS 114 small cell lung, with DMS 273 small cell lung, in the assay with HOP-18 NSCLC, in the assay with KM20L2 colon and in the assay on LXFL 529 NSCLC was greater than 100 µM in each case. Moreover, the concentration for total growth inhibition (TGI) in the assay with M19-MEL melanoma, in the assay on SNB-78 CNS and in the assay with XF 498 CNS was greater than 100 µM in each case.

With `CCOC(=O)CC(NCc1ccc(N=Cc2nc3ccc(C(F)(F)F)cc3nc2-c2ccccc2)cc1)C(=O)OCC` (configuration not stated), the TGI with DLD-1 colon, with DMS 114 small cell lung, in the assay on DMS 273 small cell lung, in the assay with HOP-18 NSCLC, in the assay with KM20L2 colon and in the assay on LXFL 529 NSCLC was greater than 100 µM in each case. Further, the TGI in the assay on M19-MEL melanoma is greater than 100 µM; with SNB-78 CNS, greater than 100 µM; with XF 498 CNS it was 40.5 µM.

In general, TGI refers to the concentration giving total growth inhibition. A higher TGI goes with less potent growth arrest.
